Data from ChEMBL document CHEMBL2311515, “Synthesis and evaluation of antibacterial activity of 7-alkyloxy-4,5-dihydro-imidazo[1,2-a]quinoline derivatives” (2013).
In brackets after ≈: the same amount, converted by molar mass.

What was measured:
Type in all cases: functional
[1] = system: Staphylococcus aureus; experiment: Antibacterial activity against Staphylococcus aureus ATCC 29213 assessed as growth inhibition after 20 hrs by NCCLS broth microdilution method; details: ATCC 29213, 20 h
[2] = system: Escherichia coli; experiment: Antibacterial activity against Escherichia coli ATCC 8739 assessed as growth inhibition after 20 hrs by NCCLS broth microdilution method; details: ATCC 8739, 20 h
[3] = system: Proteus vulgaris; experiment: Ratio of ciprofloxacin MIC to compound MIC for Proteus vulgaris ATCC 35659
[4] = system: Klebsiella pneumoniae; experiment: Antibacterial activity against Klebsiella pneumoniae ATCC 10031 assessed as growth inhibition after 20 hrs by NCCLS broth microdilution method; details: ATCC 10031, 20 h
[5] = system: Proteus vulgaris; experiment: Ratio of amoxicillin MIC to compound MIC for Proteus vulgaris ATCC 35659
[6] = system: Pseudomonas aeruginosa; experiment: Antibacterial activity against Pseudomonas aeruginosa ATCC 27853 assessed as growth inhibition after 20 hrs by NCCLS broth microdilution method; details: ATCC 27853, 20 h
[7] = system: Salmonella; experiment: Antibacterial activity against Salmonella ATCC 14028 assessed as growth inhibition after 20 hrs by NCCLS broth microdilution method; details: ATCC 14028, 20 h
[8] = system: Pasteurella sp.; experiment: Antibacterial activity against Pasteurella ATCC 6529 assessed as growth inhibition after 20 hrs by NCCLS broth microdilution method; details: ATCC 6529, 20 h
[9] = system: Proteus vulgaris; experiment: Antibacterial activity against Proteus vulgaris ATCC 35659 assessed as growth inhibition after 20 hrs by NCCLS broth microdilution method; details: ATCC 35659, 20 h

MIC [1] [µg/mL] | MIC [2] [µg/mL] | Structure (SMILES) | other results
50 (≈ 160 µM) | 50 (≈ 160 µM) | CCCCCCCCCOc1ccc2c(c1)CCc1nccn1-2 | –
150 (≈ 483 µM) | 50 (≈ 161 µM) | Clc1cccc(COc2ccc3c(c2)CCc2nccn2-3)c1 | –
150 (≈ 657 µM) | 50 (≈ 219 µM) | CCCOc1ccc2c(c1)CCc1nccn1-2 | –
150 (≈ 619 µM) | 50 (≈ 206 µM) | CCCCOc1ccc2c(c1)CCc1nccn1-2 | –
50 (≈ 176 µM) | 0.5 (≈ 1.76 µM) | CCCCCCCOc1ccc2c(c1)CCc1nccn1-2 | Ratio [3]: 8; MIC [4]: > 128 µg/mL; Ratio [5]: 8; MIC [6]: 16 µg/mL (≈ 56.3 µM); MIC [7]: 64 µg/mL (≈ 225 µM); MIC [8]: 2 µg/mL (≈ 7.03 µM); MIC [9]: 16 µg/mL (≈ 56.3 µM)
50 (≈ 161 µM) | 50 (≈ 161 µM) | Clc1ccc(COc2ccc3c(c2)CCc2nccn2-3)cc1 | –
150 (≈ 483 µM) | 100 (≈ 322 µM) | Clc1ccccc1COc1ccc2c(c1)CCc1nccn1-2 | –
150 (≈ 510 µM) | 50 (≈ 170 µM) | Fc1cccc(COc2ccc3c(c2)CCc2nccn2-3)c1 | –
50 (≈ 172 µM) | 25 (≈ 86.1 µM) | Cc1ccc(COc2ccc3c(c2)CCc2nccn2-3)cc1 | –
100 (≈ 306 µM) | 50 (≈ 153 µM) | CCCCCCCCCCOc1ccc2c(c1)CCc1nccn1-2 | –
25 (≈ 68.4 µM) | 150 (≈ 410 µM) | CC1(C)S[C@@H]2[C@H](NC(=O)[C@H](N)c3ccc(O)cc3)C(=O)N2[C@H]1C(=O)O [AMOXICILLIN] | MIC [4]: > 128 µg/mL; MIC [6]: 16 µg/mL (≈ 43.8 µM); MIC [7]: > 128 µg/mL; MIC [8]: 16 µg/mL (≈ 43.8 µM); MIC [9]: > 128 µg/mL
200 (≈ 724 µM) | 50 (≈ 181 µM) | c1ccc(COc2ccc3c(c2)CCc2nccn2-3)cc1 | –
100 (≈ 282 µM) | 50 (≈ 141 µM) | Brc1ccccc1COc1ccc2c(c1)CCc1nccn1-2 | –
50 (≈ 168 µM) | 25 (≈ 83.8 µM) | CCCCCCCCOc1ccc2c(c1)CCc1nccn1-2 | –
– | – | O=C(O)c1cn(C2CC2)c2cc(N3CCNCC3)c(F)cc2c1=O [CIPROFLOXACIN] | MIC [4]: 4 µg/mL (≈ 12.1 µM); MIC [6]: 4 µg/mL (≈ 12.1 µM); MIC [7]: > 128 µg/mL; MIC [8]: 128 µg/mL (≈ 386 µM); MIC [9]: 128 µg/mL (≈ 386 µM)
50 (≈ 170 µM) | 50 (≈ 170 µM) | Fc1ccc(COc2ccc3c(c2)CCc2nccn2-3)cc1 | –
100 (≈ 390 µM) | 50 (≈ 195 µM) | CCCCCOc1ccc2c(c1)CCc1nccn1-2 | –
150 (≈ 510 µM) | 50 (≈ 170 µM) | Fc1ccccc1COc1ccc2c(c1)CCc1nccn1-2 | –
100 (≈ 326 µM) | 50 (≈ 163 µM) | COc1ccc(COc2ccc3c(c2)CCc2nccn2-3)cc1 | –
50 (≈ 141 µM) | 25 (≈ 70.4 µM) | Brc1ccc(COc2ccc3c(c2)CCc2nccn2-3)cc1 | –
75 (≈ 277 µM) | 16 (≈ 59.2 µM) | CCCCCCOc1ccc2c(c1)CCc1nccn1-2 | –
100 (≈ 282 µM) | 50 (≈ 141 µM) | Brc1cccc(COc2ccc3c(c2)CCc2nccn2-3)c1 | –
